Data on 23 compounds can be found in ChEMBL document CHEMBL4049412, “Evolution of matrinic ethanol derivatives as anti-HCV agents from matrine skeleton” (Bioorg Med Chem Lett, 2017).

One series deals with Hepatitis C virus. The experiment in a line: Antiviral activity against Hepatitis C virus infected in human Huh7.5 cells assessed as reduction in viral RNA level after 72 hrs by RT-PCR method. In kind it is functional, cell-based, Hepacivirus hominis. The settings on record: Huh7.5, 72 h.
Series [1] is described as follows: Cytotoxicity against human Huh7.5 cells after 72 hrs by MTT assay. It is filed as cell-based. (In general: Formazan colour is commonly taken as a measure of viable cells.)
Series [2] in a line: Selectivity index, ratio of CC50 for human Huh7.5 cells to EC50 for Hepatitis C virus infected in human Huh7.5 cells. In kind it is toxicity, cell-based. The settings on record: read-out: Ratio CC50/EC50.
Series [3] is described as follows: Acute toxicity in Kunming mouse administered as single oral dose measured for 7 days. The following applies: in vivo.
The nature of series [4]: Tmax in Sprague-Dawley rat at 25 mg/kg, po administered as single dose. The following applies: in vivo. It is filed as ADME, organism-based.
Series [5] can be described thus: Cmax in Sprague-Dawley rat at 25 mg/kg, po administered as single dose. In kind it is ADME, organism-based. Also on record: dose 25 mg/kg, route oral. The following applies: in vivo.
Series [6] in a line: AUC (0 to t) in Sprague-Dawley rat at 25 mg/kg, po administered as single dose. In kind it is ADME, organism-based. The settings on record: in vivo.
Series [7] in a line: AUC (0 to infinity) in Sprague-Dawley rat at 25 mg/kg, po administered as single dose. It is filed as ADME, organism-based. Also on record: dose 25 mg/kg, route oral, time infinity. The following applies: in vivo.
The nature of series [8]: Mean residence time in Sprague-Dawley rat at 25 mg/kg, po administered as single dose. The settings on record: in vivo. It is filed as ADME, organism-based.
A short description of series [9]: Half life in Sprague-Dawley rat at 25 mg/kg, po administered as single dose. It is filed as ADME, organism-based. The settings on record: in vivo.

SMILES strings stand for the structures.

Take `COc1ccc(CN2C[C@@H]3CCCN4CCC[C@@H]([C@H]34)[C@H]2CCCC(=O)O)cc1`: the EC50 in the series on Hepatitis C virus came to 22.7 µM. Also, the CC50 at 72 h in series [1] was over 500 µM. In addition, in series [2], the selectivity ratio was over 22.
In the case of `O=C(O)C[C@@H]1[C@H]2CCCN3CCC[C@@H](CN1Cc1ccc(C(F)(F)F)cc1)[C@@H]23`, in the series on Hepatitis C virus, the EC50 is over 167 µM. This compound also showed a CC50 at 72 h in [1] of 244 µM.
Take `COc1ccc(CN2C[C@@H]3CCCN4CCC[C@@H]([C@H]34)[C@H]2CCO)cc1`: the EC50 in the series with Hepatitis C virus was determined as 3.2 µM. This compound also returned a CC50 at 72 h in [1] of 309 µM. In addition, in series [2], the selectivity ratio came out at 96.6. The LD50 at 168 h in series [3] was over 250 mg/kg. In addition, the Tmax in [4] was 0.33 h. Also, the peak level in series [5] (Cmax) was 310 nM. The same compound gave an AUC(0-t) in series [6] of 0.5 µM·h. Moreover, in series [7], the area under the curve AUC(0-inf) was 0.56 µM·h. This compound displayed an MRT in series [8] of 1.6 h. Also, the half-life in [9] was 2.08 h.
Consider `COC(=O)C[C@@H]1[C@H]2CCCN3CCC[C@@H](CN1C(=O)c1ccc(OC)cc1)[C@@H]23`, for which the EC50 with Hepatitis C virus stood at 3.03 µM. Besides, the CC50 at 72 h in series [1] is over 500 µM. Moreover, in [2], the selectivity ratio is over 165.
The corresponding values for `CCCN1C[C@@H]2CCCN3CCC[C@@H]([C@H]23)[C@H]1CCO` are 4.95 µM, over 500 µM and over 101.
For `CCOc1ccc(CN2C[C@@H]3CCCN4CCC[C@@H]([C@H]34)[C@H]2CC(=O)OC)cc1OC`, in that order: 8.06 µM, over 500 µM and over 62.
As to `Cc1ccc(CN2C[C@@H]3CCCN4CCC[C@@H]([C@H]34)[C@H]2CC(=O)O)cc1`, the EC50 in the series on Hepatitis C virus was found to be 47.5 µM. For the same compound, the CC50 at 72 h in [1] is over 500 µM. Further, the selectivity ratio in series [2] was over 10.5.
For `O=C(O)C[C@@H]1[C@H]2CCCN3CCC[C@@H](CN1Cc1ccc([N+](=O)[O-])cc1)[C@@H]23`, in that order: 104 µM, over 500 µM and over 4.81.
For `COc1cccc(CN2C[C@@H]3CCCN4CCC[C@@H]([C@H]34)[C@H]2CCO)c1OC`, in that order: 6.71 µM, 305 µM and 45.5.
For `OCC[C@@H]1[C@H]2CCCN3CCC[C@@H](CN1Cc1ccc(F)cc1F)[C@@H]23`, in that order: 5.18 µM, 217 µM and 41.9.
Turning to `O=C(O)C[C@@H]1[C@H]2CCCN3CCC[C@@H](CN1Cc1ccc(Cl)c(Cl)c1)[C@@H]23`, the EC50 in the series with Hepatitis C virus is 21.2 µM. In addition, the CC50 at 72 h in [1] was 141 µM. In addition, the selectivity ratio in series [2] was found to be 6.65.
For `COC(=O)C[C@@H]1[C@H]2CCCN3CCC[C@@H](CN1Cc1ccccc1C)[C@@H]23`, in that order: 7.14 µM, 230 µM and 32.2.
For `COc1ccc(C(=O)N2C[C@@H]3CCCN4CCC[C@@H]([C@H]34)[C@H]2CCCC(C)(C)O)cc1`, in that order: 24.6 µM, 362 µM and 14.7.
For `COC(=O)C[C@@H]1[C@H]2CCCN3CCC[C@@H](CN1Cc1ccc(F)cc1F)[C@@H]23`, in that order: 1.09 µM, 128 µM and 118.
Take `O=C(O)C[C@@H]1[C@H]2CCCN3CCC[C@@H](CN1Cc1ccccc1)[C@@H]23`: the EC50 in the series with Hepatitis C virus came out at 114 µM. Also, the CC50 at 72 h in series [1] is over 500 µM. For the same compound, the selectivity ratio in series [2] is over 4.39.
`CCOc1ccc(CN2C[C@@H]3CCCN4CCC[C@@H]([C@H]34)[C@H]2CCO)cc1OC`: the EC50 in the series on Hepatitis C virus was determined as 5.36 µM. In [1], the CC50 at 72 h was over 500 µM. The selectivity ratio in series [2] was over 93.3.
As to `COC(=O)C[C@@H]1[C@H]2CCCN3CCC[C@@H](CN1Cc1ccc(OC)cc1)[C@@H]23`, the EC50 in the series with Hepatitis C virus stood at 7.81 µM. In [1], this compound returned a CC50 at 72 h of 392 µM. For the same compound, the selectivity ratio in [2] is 50.2. This compound also registered an LD50 at 168 h in series [3] of over 250 mg/kg. Further, in series [4], the Tmax was 0.5 h. The same compound displayed a Cmax in series [5] of 360 nM. In addition, the AUC(0-t) in series [6] stood at 0.67 µM·h. The AUC(0-inf) in [7] turned out to be 0.69 µM·h. The same compound had an MRT in series [8] of 2.25 h. The compound also had a half-life in series [9] of 6.36 h.
`COc1ccc(CN2C[C@@H]3CCCN4CCC[C@@H]([C@H]34)[C@H]2CC(=O)O)cc1`: in the series with Hepatitis C virus, the EC50 amounted to 27.6 µM. The compound further gave a CC50 at 72 h in series [1] of over 500 µM. Further, the selectivity ratio in [2] is over 18.1. In [3], this compound returned an LD50 at 168 h of over 500 mg/kg. Moreover, the Tmax in [4] came out at 0.42 h. Further, the Cmax in [5] stood at 4960 nM. Further, the AUC(0-t) in [6] came out at 8.59 µM·h. Moreover, in [7], the AUC(0-inf) came out at 8.59 µM·h. This compound also returned an MRT in [8] of 2.16 h. The compound also had a half-life in [9] of 2.54 h.
In the case of `O=C(O)C[C@@H]1[C@H]2CCCN3CCC[C@@H](CN1Cc1ccncc1)[C@@H]23`, the EC50 with Hepatitis C virus is 47.2 µM. In series [1], this compound displayed a CC50 at 72 h of over 500 µM. The selectivity ratio in [2] is over 10.6.
For `O=[N+]([O-])c1ccc(CN2C[C@@H]3CCCN4CCC[C@@H]([C@H]34)[C@H]2CCO)cc1`, in that order: 3.5 µM, 118 µM and 33.7.
For `Cc1cccc(CN2C[C@@H]3CCCN4CCC[C@@H]([C@H]34)[C@H]2CC(=O)O)c1`, in that order: 86.4 µM, over 500 µM and over 5.78.
For `COC(=O)C[C@@H]1[C@H]2CCCN3CCC[C@@H](CN1Cc1ccc(C)cc1)[C@@H]23`, in that order: 2.29 µM, 215 µM and 93.7.
As to `CCCCN1C[C@@H]2CCCN3CCC[C@@H]([C@H]23)[C@H]1CCO`, in the series with Hepatitis C virus, the EC50 came to 2.58 µM. The same compound came in with a CC50 at 72 h in series [1] of over 500 µM. For the same compound, the selectivity ratio in series [2] is over 193.

What is called EC50 is the concentration needed to bring the measured effect to its halfway point. For orientation: CC50 means the concentration giving 50% cytotoxicity. What is called LD50 is the dose at which mortality reaches 50%. One may read the Tmax as the time at which the peak concentration occurs. As usually defined, the Cmax is the highest concentration seen after dosing. The term AUC(0-t) denotes exposure summed from dosing to a finite time, without extrapolation to infinity. A lower AUC(0-t) goes with less exposure. For orientation: AUC(0-inf) means the area under the concentration-time curve extrapolated to infinity. A lower AUC(0-inf) goes with low exposure. Broadly, the MRT is the average time that molecules of a dose stay in the body. As a reminder, the half-life is the time in which the quantity being followed falls by half. Low values mean rapid decline, high ones slow decline.
